The values that follow come from patent publication US20170349638A1, “COMPANION DIAGNOSTIC TOOL FOR PEPTIDOMIMETIC MACROCYCLES” (AILERON Therapeutics, Inc., priority 2016, published 2017).

Where a SMILES comes first, the peptide text is derived from it. Bridges are numbered along the chain shown (N, C = ends). [ ]: non-standard residue; d: D form. Trp(6-Cl) = N[C@@H](Cc1c[nH]c2cc(Cl)ccc12)C(=O)O; R8 = C=CCCCCCC[C@@](C)(N)C(=O)O; S5 = C=CCCC[C@](C)(N)C(=O)O; Ac3c = NC1(C(=O)O)CC1

By Ki is commonly meant a measure of affinity in units of concentration, obtained from inhibition or displacement. As usually defined, the IC50 is the concentration that gives 50% inhibition. Read a high IC50 as weaker potency in that assay.

One test deals with SJSA-1 cells. Nature of the test: Cell lysis by peptidomimetic macrocycles (LDH release). The following applies: 1 h incubation. It counts as cell-based. A general note: LDH leaks from cells whose membrane has failed.
Test [1] relates to Caspase 3 activation in SJSA1 cells. Nature of the test: Caspase 3 detection assay. Format: cell-based. The following applies: 48 h, Caspase 3 activation over DMSO-treated cells.
Description: Read on Synergy Biotek multiplate reader for luminescence. Data is analyzed as Caspase 3 activation over DMSO-treated cells.
The next test addresses MDM2 (Homo sapiens, UniProt Q00987). Description: Competitive fluorescence polarization assay for MDM2. It counts as binding. The following applies: Table 26B; competitive FP; read-out: Ki (MDM2).
Another test concerns the target T1, MDMX (Homo sapiens, UniProt O15151).
T1 sequence (O15151 1-125): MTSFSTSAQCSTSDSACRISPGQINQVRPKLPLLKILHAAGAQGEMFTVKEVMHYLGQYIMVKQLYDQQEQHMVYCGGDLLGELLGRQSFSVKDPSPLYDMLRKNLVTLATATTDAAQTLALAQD
Description: Competitive fluorescence polarization assay MDMX. Format: binding. The following applies: Table 26B; competitive FP. (In general: Polarisation of emitted light reports the rotation of a fluorescent probe.)

The next test concerns the target GST-hDM2 (Homo sapiens, UniProt Q00987). Nature of the test: Competition ELISA IC50 (nM) | GST-hDM2. The text has this:
Table printed on a drawing sheet, FIGURE 5A
Head of the field: Competition ELISA IC50 (nM) | GST-hDM2
The patent's description of the figure: FIGS. 5A-F describe the results of a cell viability assay, a competition ELISA assay, GRIP assay, Kd data, p21 activation assay, fluorescence polarization competition binding and circular helicity data for exemplary peptidomimetic macrocycles of the invention.
First copying reader's note: First part of a table that continues on FIGS. 5B-F; the print is coarse, several cells hold replicate values separated by; or , and some values sit slightly off their row line.
Where the first naming reader finds the target: head: Competition ELISA IC50 (nM) | GST-hDM2

The target in the next test is HDM2 (Homo sapiens, UniProt Q00987). Nature of the test: FP Competition Blinding Assay | HDM2 IC50 (nM).
HDM2, sequence (Q00987 whole entry, looked up): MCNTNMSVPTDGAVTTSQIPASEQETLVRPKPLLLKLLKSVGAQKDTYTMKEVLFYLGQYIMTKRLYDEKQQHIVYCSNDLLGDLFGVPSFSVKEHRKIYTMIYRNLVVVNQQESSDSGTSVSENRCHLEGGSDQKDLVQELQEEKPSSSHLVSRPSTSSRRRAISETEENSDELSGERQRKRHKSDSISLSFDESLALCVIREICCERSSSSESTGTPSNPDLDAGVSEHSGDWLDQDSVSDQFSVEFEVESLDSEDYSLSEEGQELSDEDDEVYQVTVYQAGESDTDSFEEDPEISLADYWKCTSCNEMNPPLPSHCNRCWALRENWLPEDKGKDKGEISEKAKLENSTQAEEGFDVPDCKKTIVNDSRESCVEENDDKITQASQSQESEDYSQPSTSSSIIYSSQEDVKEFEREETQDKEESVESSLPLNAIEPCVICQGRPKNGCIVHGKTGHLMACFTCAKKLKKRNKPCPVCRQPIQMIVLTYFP
The target of a further test is HDMx (Homo sapiens, UniProt O15151). Description: FP Competition Blinding Assay | HDMx IC50 (nM).
HDMx, sequence (O15151 whole entry, looked up): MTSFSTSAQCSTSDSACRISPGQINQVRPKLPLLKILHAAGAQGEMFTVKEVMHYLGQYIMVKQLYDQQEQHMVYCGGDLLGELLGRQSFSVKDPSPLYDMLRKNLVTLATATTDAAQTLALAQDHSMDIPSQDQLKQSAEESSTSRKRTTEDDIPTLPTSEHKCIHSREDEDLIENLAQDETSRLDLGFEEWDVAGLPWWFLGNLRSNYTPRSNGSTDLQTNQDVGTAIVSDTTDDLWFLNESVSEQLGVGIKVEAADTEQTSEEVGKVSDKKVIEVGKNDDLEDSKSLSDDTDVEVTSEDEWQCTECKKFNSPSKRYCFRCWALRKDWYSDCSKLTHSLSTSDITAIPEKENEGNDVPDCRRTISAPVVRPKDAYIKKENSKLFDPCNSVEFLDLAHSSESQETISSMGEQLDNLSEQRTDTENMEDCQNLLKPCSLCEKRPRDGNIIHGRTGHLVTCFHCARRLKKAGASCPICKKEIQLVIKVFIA

MDM2, sequence (Q00987 1-125): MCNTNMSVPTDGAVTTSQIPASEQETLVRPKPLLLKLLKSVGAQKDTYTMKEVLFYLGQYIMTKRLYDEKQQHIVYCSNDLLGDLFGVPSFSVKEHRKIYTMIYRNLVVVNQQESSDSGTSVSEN
GST-hDM2, sequence (Q00987 whole entry, looked up): as the sequence (Q00987 whole entry, looked up) above
Description for MDM2: Dilute 1 mM (in 100% DMSO) of FAM labeled linear peptide with DMSO to 100 μM (dilution 1:10). Then, dilute from 100 μM to 10 μM with water (dilution 1:10) and then dilute with FP buffer from 10 μM to 40 nM (dilution 1:250). This is the working solution which will be a 10 nM concentration in well (dilution 1:4). Keep the diluted FAM labeled peptide in the dark until use. • 4. […] Dilute 10 mM (in 100% DMSO) with DMSO to 5 mM (dilution 1:2). Then, dilute from 5 mM to 500 μM with H2O (dilution 1:10) and then dilute with FP buffer from 500 μM to 20 μM (dilution 1:25). […] Add 10 μl of 10 nM (4×) of FAM labeled peptide into each well and incubate for 3 hr to read.
Description for MDMX: Dilute MDMX (In-house, 40 kD) into FP buffer (High salt buffer—200 mM NaCl, 5 mM CHAPS, pH 7.5.) to make 300 nM (2×) working stock solution. • 2. Add 20 μl of 300 nM (2×) of protein stock solution into each well of 96-well black HE microplate (Molecular Devices) • 3. Dilute 1 mM (in 100% DMSO) of FAM labeled linear peptide with DMSO to 100 μM (dilution 1:10). Then, dilute from 100 μM to 10 μM with water (dilution 1:10) and then dilute with FP buffer from 10 μM to 40 nM (dilution 1:250). This is the working solution which will be a 10 nM concentration in well (dilution 1:4). Keep the diluted FAM labeled peptide in the dark until use. • 4. […] Dilute 10 mM (in 100% DMSO) with DMSO to 5 mM (dilution 1:2). Then, dilute from 5 mM to 500 μM with H2O (dilution 1:10) and then dilute with FP buffer from 500 μM to 20 μM (dilution 1:25). […] Transfer 10 μl of serial diluted unlabeled peptides to each well which is filled with 20 μl of 300 nM of protein. • 7. Add 10 μl of 10 nM (4×) of FAM labeled peptide into each well and incubate for 3 hr to read.
Description for SJSA-1 cells: On the day of the assay, media was exchanged with RPMI 1% FBS media, 90 μl of media per well.
10 mM stock solutions of the peptidomimetic macrocycles were prepared in 100% DMSO.
The negative control (non-lytic) sample was 0.5% DMSO alone and positive control (lytic) samples include 10 uM Melittin and 1% Triton X-100.
Cell plates were incubated for 1 hour at 37° C. After the 1 hour incubation, the morphology of the cells is examined by microscope and then the plates were centrifuged at 1200 rpm for 5 minutes at room temperature. 40 μl of supernatant for each peptidomimetic macrocyle and control sample is transferred to clear assay plates.

For “287 (LTFAEYWAQAAAAIA; not fully specified; Ac, NH2, staple, difluoro-Phe, Cba; N-term Ac; MOD_RES (3)..(3): 3,4-difluoro-Phe; MOD_RES (4)..(4): Alpha-Me R-azide 1,4 triazole (6 carbon) alanine olefin amino acid connected by an all-carbon crosslinker comprising one double bond; misc_feature (4)..(11): C) [compound 287]”, the “6.25 uM % Lysed cells (1 h LDH)” value in the test on SJSA-1 cells (6.25 uM) worked out at 0%. Besides, in the test on SJSA-1 cells (25 uM), the “25 uM % Lysed cells (1 h LDH)” value was 11%. In addition, in the test on SJSA-1 cells (50 uM), the “50 uM % Lysed cells (1 h LDH)” value amounted to 56%. Further, the “caspase 0.3 uM” value in test [1] (0.3 uM) amounted to 1. In addition, the “caspase 1 uM” value in test [1] (1 uM) came out at 1. In addition, the “caspase 3 uM” value in test [1] (3 uM) worked out at 3. The “caspase 10 uM” value in test [1] (10 uM) is 11. Besides, the “caspase 30 uM” value in test [1] (30 uM) is listed as 23.
As to `CC(=O)N[C@@H](CC(C)C)C(=O)N[C@H](C(=O)N[C@@H](C)C(=O)N[C@]1(C)CCCCCCn2nncc2CCC[C@@](C)(C(=O)N[C@@H](CO)C(=O)N[C@@H](C)C(=O)N[C@@H](C)C(N)=O)NC(=O)[C@H](CC2CCC2)NC(=O)[C@H](CCC(N)=O)NC(=O)[C@H](C)NC(=O)[C@H](Cc2c[nH]c3ccccc23)NC(=O)[C@H](Cc2ccc(O)cc2)NC(=O)[C@H](CCC(=O)O)NC1=O)[C@@H](C)O` [SP459, Ac-LTA$5rn6EYWAQCba$5a5SAA-NH2], the Ki on MDM2 and on MDMX was greater than 1000 nM throughout.
As for `CC(=O)N[C@@H](CC(C)C)C(=O)N[C@H](C(=O)N[C@@H](C)C(=O)N[C@]1(C)CCCCCCn2cc(nn2)CCC[C@@](C)(C(=O)N[C@@H](CO)C(=O)N[C@@H](C)C(=O)N[C@@H](C)C(N)=O)NC(=O)[C@H](CC2CCC2)NC(=O)[C@H](CCC(N)=O)NC(=O)[C@H](C)NC(=O)[C@H](Cc2c[nH]c3ccccc23)NC(=O)[C@H](Cc2ccc(O)cc2)NC(=O)[C@H](CCC(=O)O)NC1=O)[C@@H](C)O` [SP460, Ac-LTA$4rn6EYWAQCba$4a5SAA-NH2], the inhibition constant (Ki) at MDM2 and on MDMX was greater than 1000 nM in each case.
Take `CC(=O)N[C@@H](CC(C)C)C(=O)N[C@H](C(=O)N[C@@H](Cc1ccccc1)C(=O)N[C@]1(C)CCCCCCn2nnc(c2-c2ccccc2)CCC[C@@](C)(C(=O)N[C@@H](CO)C(=O)N[C@@H](C)C(=O)N[C@@H](C)C(N)=O)NC(=O)[C@H](CC2CCC2)NC(=O)[C@H](CCC(N)=O)NC(=O)[C@H](C)NC(=O)[C@H](Cc2c[nH]c3ccccc23)NC(=O)[C@H](Cc2ccc(O)cc2)NC(=O)[C@H](CCC(=O)O)NC1=O)[C@@H](C)O` [SP465, Ac-LTF$4rn6EYWAQCba5Ph-$4a5SAA-NH2]: the Ki on MDM2 and at MDMX was less than 10 nM each time.
With `CC(=O)N[C@@H](CC(C)C)C(=O)N[C@@H](CO)C(=O)N[C@@H](CCC(N)=O)C(=O)N[C@@H](CCC(N)=O)C(=O)N[C@H](C(=O)N[C@@H](Cc1ccccc1)C(=O)N[C@]1(C)CCCCCCC=CCCC[C@@](C)(C(=O)N[C@@H](CCC(N)=O)C(=O)N[C@@H](CC(N)=O)C(N)=O)NC(=O)[C@H](CC(C)C)NC(=O)[C@H](CC(C)C)NC(=O)[C@H](CCCNC(=N)N)NC(=O)[C@H](Cc2c[nH]c3ccccc23)NC(=O)[C@H](CC(C)C)NC(=O)[C@H](CC(N)=O)NC1=O)[C@@H](C)O` [SP-3, Ac-LSQQTF$r8NLWRLL$QN-NH2] (Ac-LSQQTF[R8]NLWRLL[S5]QN-NH2; staple 7-14 (inferred)), the IC50 on GST-hDM2 turned out to be 13.4 nM. That is a double-digit nanomolar value.
For the compound `CC(=O)N[C@@H](Cc1ccccc1)C(=O)N[C@]1(C)CCCCCCC=CCCC[C@@](C)(C(=O)N[C@@H](C)C(N)=O)NC(=O)[C@H](CC(C)C)NC(=O)C2(CC2)NC(=O)[C@H](CCC(=O)O)NC(=O)[C@H](Cc2c[nH]c3cc(Cl)ccc23)NC(=O)[C@H](Cc2ccc(O)cc2)NC(=O)[C@H](C)NC1=O` [SP-128, Ac- F $r8 A Y 6clW E Ac3c L $ A -NH2] (Ac-F[R8]AY[Trp(6-Cl)]E[Ac3c]L[S5]A-NH2; staple 2-9 (inferred)), the 50% inhibitory concentration (IC50) on HDM2 is 114 nM.
`CC(=O)N[C@@H](CC(C)C)C(=O)N[C@H](C(=O)N[C@@H](Cc1ccccc1)C(=O)N[C@]1(C)CCCCCC/C=C/CCC[C@@](C)(C(=O)N[C@@H](CO)C(N)=O)NC(=O)[C@H](CC(C)C)NC(=O)[C@H](CCC(N)=O)NC(=O)[C@H](C)NC(=O)[C@H](Cc2c[nH]c3ccccc23)NC(=O)[C@H](Cc2ccc(O)cc2)NC(=O)[C@H](C)NC1=O)[C@@H](C)O` [SP-190, Ac- L T F $er8 A Y W A Q L $e S -NH2] (Ac-LTF[R8]AYWAQL[S5]S-NH2; staple (E) 4-11 (inferred)): the IC50 on HDMx worked out at 97 nM; on HDM2 it was 74.9 nM.
Take `CC(=O)N[C@@H](Cc1c[nH]c2ccccc12)C(=O)N[C@H](C(=O)N[C@@H](Cc1ccccc1)C(=O)N[C@]1(C)CCCCCCC=CCCC[C@@](C)(C(=O)N[C@@H](CO)C(N)=O)NC(=O)[C@H](CC(C)C)NC(=O)[C@H](CCC(N)=O)NC(=O)[C@H](C)NC(=O)[C@H](Cc2c[nH]c3ccccc23)NC(=O)[C@H](Cc2ccc(O)cc2)NC(=O)[C@H](Cc2c[nH]cn2)NC1=O)[C@@H](C)O` [SP-256, Ac- W T F $r8 H Y W A Q L $ S -NH2] (Ac-WTF[R8]HYWAQL[S5]S-NH2; staple 4-11 (inferred)): on HDMx, the half-inhibitory concentration (IC50) was determined as 204 nM.
Still for that read-out and setting: the value for `CC(=O)N[C@@H](CC(C)C)C(=O)N[C@H](C(=O)N[C@@H](Cc1ccccc1)C(=O)N[C@]1(C)CCCCCCC=CCCC[C@@](C)(C(=O)N[C@@H](CO)C(N)=O)NC(=O)[C@H](CC(C)C)NC(=O)[C@H](CCC(N)=O)NC(=O)[C@H](C)NC(=O)[C@H](Cc2c[nH]c3ccccc23)NC(=O)[C@H](Cc2ccc(O)cc2)NC(=O)[C@H](C(C)C)NC1=O)[C@@H](C)O` [SP-266, Ac- L T F $r8 V Y W A Q L $ S -NH2] (Ac-LTF[R8]VYWAQL[S5]S-NH2; staple 4-11 (inferred)) was 301 nM.
Compound `CC(=O)N[C@@H](CC(C)C)C(=O)N[C@H](C(=O)N[C@@H](Cc1ccccc1)C(=O)N[C@]1(C)CCCCCCC=CCCC[C@@](C)(C(=O)N[C@@H](CO)C(N)=O)NC(=O)[C@H](CC(C)C)NC(=O)[C@H](CCC(N)=O)NC(=O)[C@H](C)NC(=O)[C@H](Cc2c[nH]c3ccccc23)NC(=O)[C@H](Cc2ccc(O)cc2)NC(=O)[C@H](Cc2ccccc2)NC1=O)[C@@H](C)O` [SP-267, Ac- L T F $r8 F Y W A Q L $ S -NH2] (Ac-LTF[R8]FYWAQL[S5]S-NH2; staple 4-11 (inferred)) registered a 50% inhibitory concentration (IC50) at HDM2 of 191 nM.
Regarding `CC(=O)N[C@@H](CC(C)C)C(=O)N[C@H](C(=O)N[C@@H](Cc1ccccc1)C(=O)N[C@]1(C)CCCCCCC=CCCC[C@@](C)(C(=O)N[C@@H](CO)C(N)=O)NC(=O)[C@H](CC(C)C)NC(=O)[C@H](C)NC(=O)[C@H](C)NC(=O)[C@H](Cc2c[nH]c3ccccc23)NC(=O)[C@H](Cc2ccc(O)cc2)NC(=O)[C@H](C)NC1=O)[C@@H](C)O` [SP-351, Ac- L T F $r8 A Y W A A L $ S -NH2] (Ac-LTF[R8]AYWAAL[S5]S-NH2; staple 4-11 (inferred)), the IC50 on HDMx came to 143 nM; on HDM2, 47.2 nM.
